Source: paper PMC12397248, “Proanthocyanidins inhibit CYP1B1 through mixed-type kinetics and stable binding in molecular dynamics simulations” (Scientific Reports, 2025)

B1: Cytochrome P450 1B1 (CYP1B1) (Homo sapiens) (protein)
chain: MGTSLSPNDPWPLNPLSIQQTTLLLLLSVLATVHVGQRLLRQRRRQLRSAPPGPFAWPLIGNAAAVGQAAHLSFARLARRYGDVFQIRLGSCPIVVLNGERAIHQALVQQGSAFADRPAFASFRVVSGGRSMAFGHYSEHWKVQRRAAHSMMRNFFTRQPRSRQVLEGHVLSEARELVALLVRGSADGAFLDPRPLTVVAVANVMSAVCFGCRYSHDDPEFRELLSHNEEFGRTVGAGSLVDVMPWLQYFPNPVRTVFREFEQLNRNFSNFILDKFLRHCESLRPGAAPRDMMDAFILSAEKKAAGDSHGGGARLDLENVPATITDIFGASQDTLSTALQWLLLLFTRYPDVQTRVQAELDQVVGRDRLPCMGDQPNLPYVLAFLYEAMRFSSFVPVTIPHATTANTSVLGYHIPKDTVVFVNQWSVNHDPLKWPNPENFDPARFLDKDGLINKDLTSRVMIFSVGKRRCIGEELSKMQLFLFISILAHQCDFRANPNEPAKMNFSYGLTIKPKSFKVNVTLRESMELLDSAVQNLQAKETCQ

How the values were obtained:
[1] = target: T1, Cytochrome P450 1B1 (CYP1B1) (Homo sapiens, UniProt Q16678); assay: recombinant human CYP1B1 ethoxyresorufin O-deethylation fluorescence assay; Michaelis-Menten and Lineweaver-Burk kinetics; format: biochemical
T1 sequence (Q16678 1-543): B1 chain

[2] = substrate: CCOc1ccc2nc3ccc(=O)cc-3oc2c1; assay: Michaelis-Menten kinetics of O-deethylation by recombinant CYP1B1 (Km); format: biochemical, Homo sapiens; details: heme; NADPH

| Molecule | IC50 [1] | Km [2] |
| --- | --- | --- |
| proanthocyanidin [PA] | 2530 ± 10 nM |  |
| B1 |  | 236 ± 74 µM |
